Test results taken from ChEMBL document CHEMBL1136974, “Selective inhibitors of tumor progression loci-2 (Tpl2) kinase with potent inhibition of TNF-alpha production in human whole blood” (Bioorg Med Chem Lett, 2009).

Tests used:
[1] = Selectivity of Tpl2 to Src
[2] = Selectivity of Tpl2 to p38
[3] = Selectivity of Tpl2 to PKA
[4] = Selectivity of Tpl2 to MK2
[5] = Selectivity of Tpl2 to CAMK2
[6] = Selectivity of Tpl2 to PKC
[7] = Clearance in rat; assay type: ADME, organism-based; conditions: in vivo
[8] = Membrane permeability by PAMPA assay; assay type: ADME; conditions: read-out: permeability

Row | SMILES | fold change (FC) [1] | fold change (FC) [2] | fold change (FC) [3] | fold change (FC) [4] | fold change (FC) [5] | fold change (FC) [6] | clearance [7] | Papp [8]
1 | N#Cc1cnc2c(Cl)cc(NCc3cn(CCN4CCOCC4)nn3)cc2c1Nc1ccc(F)c(Cl)c1 | 10 | 10 | 10 | 10 | 10 | 10 |  | 
2 | N#Cc1cnc2c(Cl)cc(NCc3cn(-c4ccccc4)nn3)cc2c1Nc1ccc(F)c(Cl)c1 | 10 | 10 | 10 | 10 | 10 | 10 |  | 
3 | N#Cc1cnc2c(Cl)cc(NCc3cn(Cc4ccncc4)nn3)cc2c1Nc1ccc(F)c(Cl)c1 | 10 | 10 | 10 | 10 | 10 | 10 | 88 mL/min/kg | 
4 | N#Cc1cnc2c(Cl)cc(NCc3cn(CCN4CCCCC4)nn3)cc2c1Nc1ccc(F)c(Cl)c1 | 10 | 10 | 10 | 10 | 10 | 10 |  | 
5 | N#Cc1cnc2c(Cl)cc(NCc3cn(C4CCNCC4)nn3)cc2c1Nc1ccc(F)c(Cl)c1 | 10 | 10 | 10 | 10 | 10 | 10 |  | 0.03 ×10⁻⁶ cm/s
6 | N#Cc1cnc2c(Cl)cc(NCc3cn(Cc4cccnc4)nn3)cc2c1Nc1ccc(F)c(Cl)c1 | 10 | 10 | 10 | 10 | 10 | 10 |  | 0.18 ×10⁻⁶ cm/s
7 | CC(C)(C)n1cc(CNc2cc(Cl)c3ncc(C#N)c(Nc4ccc(F)c(Cl)c4)c3c2)nn1 | 10 | 10 | 10 | 10 |  | 10 |  | 0.1 ×10⁻⁶ cm/s
8 | CN1CCC(n2cc(CNc3cc(Cl)c4ncc(C#N)c(Nc5ccc(F)c(Cl)c5)c4c3)nn2)CC1 | 10 | 10 | 10 | 10 | 10 | 10 |  | 0.39 ×10⁻⁶ cm/s
9 | N#Cc1cnc2c(Br)cc(NCc3cn(CC(=O)O)nn3)cc2c1Nc1ccc(F)c(Cl)c1 | 10 | 10 | 10 | 10 | 10 | 10 |  | 1.8 ×10⁻⁶ cm/s
10 | N#Cc1cnc2c(Br)cc(NCc3cn(CCC4CCCN4)nn3)cc2c1Nc1ccc(F)c(Cl)c1 (stereo not drawn) | 10 | 10 | 10 | 10 | 10 | 10 |  | 0.72 ×10⁻⁶ cm/s
11 | N#Cc1cnc2c(Cl)cc(NCc3cn(CCC4CCCN4)nn3)cc2c1Nc1ccc(F)c(Cl)c1 (stereo not drawn) | 10 | 10 | 10 | 10 | 10 | 10 |  | 0.57 ×10⁻⁶ cm/s
12 | CC(C)N1CCC(n2cc(CNc3cc(Cl)c4ncc(C#N)c(Nc5ccc(F)c(Cl)c5)c4c3)nn2)CC1 | 10 | 10 | 10 | 10 | 10 | 10 |  | 
13 | N#Cc1cnc2c(Br)cc(NCc3cn(-c4ccccc4)nn3)cc2c1Nc1ccc(F)c(Cl)c1 | 10 | 10 | 10 | 10 | 10 | 10 |  | 1.2 ×10⁻⁶ cm/s
14 | N#Cc1cnc2c(Cl)cc(NCc3cn(CCN)nn3)cc2c1Nc1ccc(F)c(Cl)c1 | 10 | 10 | 10 | 10 | 10 | 10 |  | 
15 | N#Cc1cnc2c(Cl)cc(NCc3cn(CCN4CCCCCC4)nn3)cc2c1Nc1ccc(F)c(Cl)c1 | 10 | 10 | 10 | 10 | 10 | 10 |  | 
